{
  "source": "paper PMC11842588",
  "about": "“A first-in-class selective inhibitor of ERK1/2 and ERK5 overcomes drug resistance with a single-molecule strategy” (Signal Transduction and Targeted Therapy, 2025)",
  "assay_in_all_cases": "Kinase profiling",
  "type_in_all_cases": "biochemical",
  "key": {"[1]": {"molecular_target": "T1, PKCμ(h) (Homo sapiens, UniProt Q15139)", "T1 construct": "purchased Eurofins Cerep SA (KinaseProfiler)", "method": "(§1) 380 kinases inhibitory activities of SKLB-D18 were conducted by Eurofins Cerep SA. The result was illustrated by kinase tree (http://www.kinhub.org/kinmap/)."}, "[2]": {"molecular_target": "T2, SRPK1(h) (Homo sapiens, UniProt Q96SB4)", "T2 construct": "purchased Eurofins Cerep SA (KinaseProfiler)", "T2 sequence (Q96SB4 whole entry)": "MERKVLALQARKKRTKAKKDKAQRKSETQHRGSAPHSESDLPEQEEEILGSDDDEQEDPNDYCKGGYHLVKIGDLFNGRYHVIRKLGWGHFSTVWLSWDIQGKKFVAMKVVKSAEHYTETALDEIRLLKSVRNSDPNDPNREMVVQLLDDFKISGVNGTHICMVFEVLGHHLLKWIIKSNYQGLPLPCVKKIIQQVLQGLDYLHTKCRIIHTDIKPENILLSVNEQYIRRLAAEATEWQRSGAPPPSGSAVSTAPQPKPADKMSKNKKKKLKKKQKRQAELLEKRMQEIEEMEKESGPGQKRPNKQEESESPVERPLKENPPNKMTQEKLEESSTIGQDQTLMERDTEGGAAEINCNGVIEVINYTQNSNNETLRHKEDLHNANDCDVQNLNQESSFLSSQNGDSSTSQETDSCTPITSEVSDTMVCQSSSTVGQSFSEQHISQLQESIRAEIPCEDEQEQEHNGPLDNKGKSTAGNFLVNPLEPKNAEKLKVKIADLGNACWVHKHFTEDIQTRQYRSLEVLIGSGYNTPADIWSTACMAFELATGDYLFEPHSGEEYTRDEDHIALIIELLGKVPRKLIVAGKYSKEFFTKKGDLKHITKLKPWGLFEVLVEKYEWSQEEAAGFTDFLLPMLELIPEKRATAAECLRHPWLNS", "method": "as §1"}, "[3]": {"molecular_target": "T3, ATR/ATRIP(h) (Homo sapiens, UniProt Q13535)", "T3 construct": "purchased Eurofins Cerep SA (KinaseProfiler)", "method": "as §1"}, "[4]": {"molecular_target": "T4, MRCKα(h) (Homo sapiens, UniProt Q5VT25)", "T4 construct": "purchased Eurofins Cerep SA (KinaseProfiler)", "method": "as §1"}, "[5]": {"molecular_target": "T5, SIK3(h) (Homo sapiens, UniProt Q9Y2K2)", "T5 construct": "purchased Eurofins Cerep SA (KinaseProfiler)", "method": "as §1"}, "[6]": {"molecular_target": "T6, DDR2(h) (Homo sapiens, UniProt Q16832)", "T6 construct": "purchased Eurofins Cerep SA (KinaseProfiler)", "method": "as §1"}, "[7]": {"molecular_target": "T7, PIP5K1g(h) (Homo sapiens, UniProt O60331)", "T7 construct": "purchased Eurofins Cerep SA (KinaseProfiler)", "method": "as §1"}, "[8]": {"molecular_target": "T8, CaMKIγ(h) (Homo sapiens, UniProt Q96NX5)", "T8 construct": "purchased Eurofins Cerep SA (KinaseProfiler)", "method": "as §1"}, "[9]": {"molecular_target": "T9, PRK1(h) (Homo sapiens, UniProt Q16512)", "T9 construct": "purchased Eurofins Cerep SA (KinaseProfiler)", "T9 sequence (Q16512 whole entry)": "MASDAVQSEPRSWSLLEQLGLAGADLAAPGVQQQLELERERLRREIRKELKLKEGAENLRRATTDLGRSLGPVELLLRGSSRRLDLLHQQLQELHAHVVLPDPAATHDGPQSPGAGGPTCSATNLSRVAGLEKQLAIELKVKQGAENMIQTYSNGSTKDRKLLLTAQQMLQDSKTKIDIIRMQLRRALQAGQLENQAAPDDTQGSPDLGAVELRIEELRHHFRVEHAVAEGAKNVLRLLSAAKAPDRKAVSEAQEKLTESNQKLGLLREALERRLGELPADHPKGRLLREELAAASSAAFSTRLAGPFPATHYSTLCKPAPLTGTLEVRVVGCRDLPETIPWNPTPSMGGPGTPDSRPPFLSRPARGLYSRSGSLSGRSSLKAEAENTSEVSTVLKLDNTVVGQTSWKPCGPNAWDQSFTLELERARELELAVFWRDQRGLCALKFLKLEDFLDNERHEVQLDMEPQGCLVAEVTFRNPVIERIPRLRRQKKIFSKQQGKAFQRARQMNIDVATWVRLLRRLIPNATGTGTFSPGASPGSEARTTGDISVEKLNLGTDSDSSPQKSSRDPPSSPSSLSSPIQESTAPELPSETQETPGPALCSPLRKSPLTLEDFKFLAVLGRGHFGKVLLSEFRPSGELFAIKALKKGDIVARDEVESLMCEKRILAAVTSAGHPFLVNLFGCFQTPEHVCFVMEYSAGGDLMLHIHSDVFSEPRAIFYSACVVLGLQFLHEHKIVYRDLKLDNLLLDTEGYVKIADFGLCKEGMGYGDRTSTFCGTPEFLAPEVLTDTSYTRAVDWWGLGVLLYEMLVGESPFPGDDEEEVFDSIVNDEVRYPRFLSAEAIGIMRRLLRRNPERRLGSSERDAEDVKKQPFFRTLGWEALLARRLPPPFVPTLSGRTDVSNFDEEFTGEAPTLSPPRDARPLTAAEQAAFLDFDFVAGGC", "method": "as §1"}, "[10]": {"molecular_target": "T10, PAK1(h) (Homo sapiens, UniProt Q13153)", "T10 construct": "purchased Eurofins Cerep SA (KinaseProfiler)", "method": "as §1"}, "[11]": {"molecular_target": "T11, MRCKγ(h) (Homo sapiens, UniProt Q6DT37)", "T11 construct": "purchased Eurofins Cerep SA (KinaseProfiler)", "method": "as §1"}, "[12]": {"molecular_target": "T12, GCK(h) (Homo sapiens, UniProt Q12851)", "T12 construct": "purchased Eurofins Cerep SA (KinaseProfiler)", "method": "as §1"}, "[13]": {"molecular_target": "T13, MEK1(h) (Homo sapiens, UniProt Q02750)", "T13 construct": "purchased Eurofins Cerep SA (KinaseProfiler)", "method": "as §1"}, "[14]": {"molecular_target": "T14, DAPK1(h) (Homo sapiens, UniProt P53355)", "T14 construct": "purchased Eurofins Cerep SA (KinaseProfiler)", "method": "as §1"}, "[15]": {"molecular_target": "T15, ASK1(h) (Homo sapiens, UniProt Q99683)", "T15 construct": "purchased Eurofins Cerep SA (KinaseProfiler)", "T15 sequence (Q99683 whole entry)": "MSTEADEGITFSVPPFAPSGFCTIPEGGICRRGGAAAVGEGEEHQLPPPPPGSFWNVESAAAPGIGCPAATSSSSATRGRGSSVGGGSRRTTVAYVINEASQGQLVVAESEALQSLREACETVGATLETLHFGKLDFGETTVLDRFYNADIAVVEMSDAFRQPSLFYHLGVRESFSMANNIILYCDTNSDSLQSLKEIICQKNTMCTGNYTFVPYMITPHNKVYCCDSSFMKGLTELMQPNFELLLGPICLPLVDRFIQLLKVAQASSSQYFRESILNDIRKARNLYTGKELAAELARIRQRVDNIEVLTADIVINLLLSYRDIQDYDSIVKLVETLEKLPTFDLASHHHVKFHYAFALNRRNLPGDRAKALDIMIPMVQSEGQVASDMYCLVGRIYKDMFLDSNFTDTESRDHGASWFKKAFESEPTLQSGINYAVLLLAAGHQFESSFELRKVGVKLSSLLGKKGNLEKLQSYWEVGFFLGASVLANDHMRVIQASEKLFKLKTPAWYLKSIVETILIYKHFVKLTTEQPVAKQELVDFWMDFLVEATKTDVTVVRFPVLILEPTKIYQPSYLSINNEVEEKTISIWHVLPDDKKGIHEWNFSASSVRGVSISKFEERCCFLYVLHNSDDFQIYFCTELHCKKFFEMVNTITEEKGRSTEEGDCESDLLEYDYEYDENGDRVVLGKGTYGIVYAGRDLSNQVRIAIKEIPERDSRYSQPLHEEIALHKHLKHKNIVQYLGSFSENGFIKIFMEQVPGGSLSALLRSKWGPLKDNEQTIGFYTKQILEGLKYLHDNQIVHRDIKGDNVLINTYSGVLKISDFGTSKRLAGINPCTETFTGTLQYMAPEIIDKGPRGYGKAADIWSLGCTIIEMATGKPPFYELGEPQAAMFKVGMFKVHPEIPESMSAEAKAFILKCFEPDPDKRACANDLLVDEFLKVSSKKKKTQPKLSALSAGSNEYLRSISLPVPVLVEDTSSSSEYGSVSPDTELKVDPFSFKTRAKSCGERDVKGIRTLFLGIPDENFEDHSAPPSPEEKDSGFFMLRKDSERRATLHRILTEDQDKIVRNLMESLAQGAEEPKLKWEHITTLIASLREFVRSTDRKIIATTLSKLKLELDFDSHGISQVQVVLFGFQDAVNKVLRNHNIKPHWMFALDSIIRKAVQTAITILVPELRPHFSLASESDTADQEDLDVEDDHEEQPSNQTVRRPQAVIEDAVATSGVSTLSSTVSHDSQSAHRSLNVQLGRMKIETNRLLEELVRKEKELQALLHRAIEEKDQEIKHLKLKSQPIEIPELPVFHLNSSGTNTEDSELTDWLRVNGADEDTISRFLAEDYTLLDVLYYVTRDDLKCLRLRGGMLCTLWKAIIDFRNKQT", "method": "as §1"}, "[16]": {"molecular_target": "T16, GRK6(h) (Homo sapiens, UniProt P43250)", "T16 construct": "purchased Eurofins Cerep SA (KinaseProfiler)", "T16 sequence (P43250 whole entry)": "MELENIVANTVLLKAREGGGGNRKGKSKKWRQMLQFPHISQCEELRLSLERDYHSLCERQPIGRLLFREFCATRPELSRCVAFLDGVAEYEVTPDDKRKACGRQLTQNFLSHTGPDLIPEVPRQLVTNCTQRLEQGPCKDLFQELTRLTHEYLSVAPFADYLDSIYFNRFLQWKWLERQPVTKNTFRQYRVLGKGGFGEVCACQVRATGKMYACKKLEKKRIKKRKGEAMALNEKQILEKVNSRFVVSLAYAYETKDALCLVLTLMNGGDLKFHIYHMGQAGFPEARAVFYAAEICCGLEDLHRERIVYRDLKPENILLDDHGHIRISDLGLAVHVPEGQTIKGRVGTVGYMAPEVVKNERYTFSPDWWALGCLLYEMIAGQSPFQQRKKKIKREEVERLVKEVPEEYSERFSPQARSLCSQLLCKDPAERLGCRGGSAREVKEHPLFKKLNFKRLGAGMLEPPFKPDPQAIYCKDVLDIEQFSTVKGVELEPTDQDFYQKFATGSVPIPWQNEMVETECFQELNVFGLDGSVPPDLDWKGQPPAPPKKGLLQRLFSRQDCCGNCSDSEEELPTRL", "method": "as §1"}, "[17]": {"molecular_target": "T17, CDK16/cyclinY(h) (Homo sapiens, UniProt Q00536)", "T17 construct": "purchased Eurofins Cerep SA (KinaseProfiler)", "method": "as §1"}, "[18]": {"molecular_target": "T18, CDK18/cyclinY(h) (Homo sapiens, UniProt Q07002)", "T18 construct": "purchased Eurofins Cerep SA (KinaseProfiler)", "method": "as §1"}, "[19]": {"molecular_target": "T19, Mnk1(h) (Homo sapiens, UniProt Q9BUB5)", "T19 construct": "purchased Eurofins Cerep SA (KinaseProfiler)", "method": "as §1"}, "[20]": {"molecular_target": "T20, Abl(h) (Homo sapiens, UniProt P00519)", "T20 construct": "purchased Eurofins Cerep SA (KinaseProfiler)", "method": "as §1"}, "[21]": {"molecular_target": "T21, CDK5/p35(h) (Homo sapiens, UniProt Q00535)", "T21 construct": "purchased Eurofins Cerep SA (KinaseProfiler)", "method": "as §1"}, "[22]": {"molecular_target": "T22, FGFR1(h) (Homo sapiens, UniProt P11362)", "T22 construct": "purchased Eurofins Cerep SA (KinaseProfiler)", "T22 sequence (P11362 22-822)": "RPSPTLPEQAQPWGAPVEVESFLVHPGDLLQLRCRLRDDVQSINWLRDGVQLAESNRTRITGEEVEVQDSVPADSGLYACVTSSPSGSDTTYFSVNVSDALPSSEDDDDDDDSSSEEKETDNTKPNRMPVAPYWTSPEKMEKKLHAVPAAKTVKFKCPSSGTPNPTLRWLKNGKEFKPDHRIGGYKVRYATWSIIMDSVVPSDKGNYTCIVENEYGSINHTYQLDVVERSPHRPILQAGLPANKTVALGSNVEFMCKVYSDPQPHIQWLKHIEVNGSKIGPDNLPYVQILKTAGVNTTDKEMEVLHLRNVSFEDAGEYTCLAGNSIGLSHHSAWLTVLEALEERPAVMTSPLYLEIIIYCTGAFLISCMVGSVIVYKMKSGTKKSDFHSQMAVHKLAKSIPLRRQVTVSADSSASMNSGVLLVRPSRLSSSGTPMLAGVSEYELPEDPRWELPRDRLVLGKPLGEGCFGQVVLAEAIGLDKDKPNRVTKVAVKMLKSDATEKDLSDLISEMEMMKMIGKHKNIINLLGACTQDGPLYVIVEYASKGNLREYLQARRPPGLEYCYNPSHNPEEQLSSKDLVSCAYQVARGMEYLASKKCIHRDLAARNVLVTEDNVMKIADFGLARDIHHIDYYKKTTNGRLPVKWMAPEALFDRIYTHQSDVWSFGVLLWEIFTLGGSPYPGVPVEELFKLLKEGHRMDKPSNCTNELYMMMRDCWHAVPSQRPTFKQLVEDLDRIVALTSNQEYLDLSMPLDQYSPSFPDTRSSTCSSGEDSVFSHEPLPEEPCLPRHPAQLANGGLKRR", "method": "as §1"}, "[23]": {"molecular_target": "T23, ALK6(h) (Homo sapiens, UniProt O00238)", "T23 construct": "purchased Eurofins Cerep SA (KinaseProfiler)", "method": "as §1"}, "[24]": {"molecular_target": "T24, PKBγ(h) (Homo sapiens, UniProt Q9Y243)", "T24 construct": "purchased Eurofins Cerep SA (KinaseProfiler)", "method": "as §1"}, "[25]": {"molecular_target": "T25, PRK2(h) (Homo sapiens, UniProt Q16513)", "T25 construct": "purchased Eurofins Cerep SA (KinaseProfiler)", "method": "as §1"}, "[26]": {"molecular_target": "T26, MRCKβ(h) (Homo sapiens, UniProt Q9Y5S2)", "T26 construct": "purchased Eurofins Cerep SA (KinaseProfiler)", "method": "as §1"}, "[27]": {"molecular_target": "T27, RIPK1(h) (Homo sapiens, UniProt Q13546)", "T27 construct": "purchased Eurofins Cerep SA (KinaseProfiler)", "method": "as §1"}, "[28]": {"molecular_target": "T28, PI3 Kinase (p110a/p85a)(h) (Homo sapiens, UniProt P42336)", "T28 construct": "purchased Eurofins Cerep SA (KinaseProfiler)", "method": "as §1"}, "[29]": {"molecular_target": "T29, ChaK1(h) (Homo sapiens, UniProt Q96QT4)", "T29 construct": "purchased Eurofins Cerep SA (KinaseProfiler)", "method": "as §1"}, "[30]": {"molecular_target": "T30, p70S6Kβ(h) (Homo sapiens, UniProt Q9UBS0)", "T30 construct": "purchased Eurofins Cerep SA (KinaseProfiler)", "method": "as §1"}, "[31]": {"molecular_target": "T31, DYRK1A(h) (Homo sapiens, UniProt Q13627)", "T31 construct": "purchased Eurofins Cerep SA (KinaseProfiler)", "method": "as §1"}, "[32]": {"molecular_target": "T32, PKCα(h) (Homo sapiens, UniProt P17252)", "T32 construct": "purchased Eurofins Cerep SA (KinaseProfiler)", "method": "as §1"}, "[33]": {"molecular_target": "T33, GRK1(h) (Homo sapiens, UniProt Q15835)", "T33 construct": "purchased Eurofins Cerep SA (KinaseProfiler)", "method": "as §1"}, "[34]": {"molecular_target": "T34, BTK(h) (Homo sapiens, UniProt Q06187)", "T34 construct": "purchased Eurofins Cerep SA (KinaseProfiler)", "method": "as §1"}, "[35]": {"molecular_target": "T35, PKG1α(h) (Homo sapiens, UniProt Q13976)", "T35 construct": "purchased Eurofins Cerep SA (KinaseProfiler)", "method": "as §1"}, "[36]": {"molecular_target": "T36, PDK1(h) (Homo sapiens, UniProt O15530)", "T36 construct": "purchased Eurofins Cerep SA (KinaseProfiler)", "method": "as §1"}, "[37]": {"molecular_target": "T37, CDK1/cyclinB(h) (Homo sapiens, UniProt P06493)", "T37 construct": "purchased Eurofins Cerep SA (KinaseProfiler)", "method": "as §1"}, "[38]": {"molecular_target": "T38, Mer(h) (Homo sapiens, UniProt Q12866)", "T38 construct": "purchased Eurofins Cerep SA (KinaseProfiler)", "method": "as §1"}, "[39]": {"molecular_target": "T39, PI3KC2a(h) (Homo sapiens, UniProt O00443)", "T39 construct": "purchased Eurofins Cerep SA (KinaseProfiler)", "method": "as §1"}, "[40]": {"molecular_target": "T40, PAR-1Bα(h) (Homo sapiens, UniProt Q7KZI7)", "T40 construct": "purchased Eurofins Cerep SA (KinaseProfiler)", "T40 sequence (Q7KZI7 1-725 isoform Q7KZI7-4)": "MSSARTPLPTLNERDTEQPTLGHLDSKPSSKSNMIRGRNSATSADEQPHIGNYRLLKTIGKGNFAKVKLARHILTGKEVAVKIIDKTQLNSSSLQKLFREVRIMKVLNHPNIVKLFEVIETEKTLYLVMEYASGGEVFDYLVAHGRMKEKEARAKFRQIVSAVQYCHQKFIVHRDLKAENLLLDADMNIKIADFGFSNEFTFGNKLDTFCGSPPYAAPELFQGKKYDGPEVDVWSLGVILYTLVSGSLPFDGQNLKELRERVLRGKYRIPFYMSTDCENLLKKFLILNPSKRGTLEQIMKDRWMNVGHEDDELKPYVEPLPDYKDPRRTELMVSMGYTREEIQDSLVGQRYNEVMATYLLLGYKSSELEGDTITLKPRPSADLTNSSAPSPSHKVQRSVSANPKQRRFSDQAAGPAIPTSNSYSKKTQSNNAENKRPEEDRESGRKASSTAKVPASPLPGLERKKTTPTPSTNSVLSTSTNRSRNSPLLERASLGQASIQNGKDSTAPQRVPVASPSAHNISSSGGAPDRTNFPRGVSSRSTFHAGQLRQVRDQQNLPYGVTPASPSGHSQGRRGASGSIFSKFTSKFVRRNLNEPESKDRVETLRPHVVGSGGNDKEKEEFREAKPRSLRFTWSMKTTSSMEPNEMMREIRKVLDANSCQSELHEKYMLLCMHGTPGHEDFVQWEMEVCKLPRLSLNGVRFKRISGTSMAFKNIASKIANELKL", "method": "as §1"}},
  "data": [
    {"smiles": "CN(C)Cc1cccc(Nc2ncc(Cl)c(-c3csc(C(=O)NN4CCOCC4)c3)n2)c1", "note": "[SKLB-D18, 4-(5-chloro-2-((3-((dimethylamino)methyl)phenyl)amino)pyrimidin-4-yl)-N-morpholinothiophene-2-carboxamide]", "values": [
      {"measurement": "inhibition at 1 µM", "setting": "[1]", "value": 64, "unit": "%"},
      {"measurement": "inhibition at 1 µM", "setting": "[2]", "value": -2, "unit": "%"},
      {"measurement": "inhibition at 1 µM", "setting": "[3]", "value": 13, "unit": "%"},
      {"measurement": "inhibition at 1 µM", "setting": "[4]", "value": 2, "unit": "%"},
      {"measurement": "inhibition at 1 µM", "setting": "[5]", "value": 22, "unit": "%"},
      {"measurement": "inhibition at 1 µM", "setting": "[6]", "value": -2, "unit": "%"},
      {"measurement": "inhibition at 1 µM", "setting": "[7]", "value": -4, "unit": "%"},
      {"measurement": "inhibition at 1 µM", "setting": "[8]", "value": 12, "unit": "%"},
      {"measurement": "inhibition at 1 µM", "setting": "[9]", "value": 73, "unit": "%"},
      {"measurement": "inhibition at 1 µM", "setting": "[10]", "value": 45, "unit": "%"},
      {"measurement": "inhibition at 1 µM", "setting": "[11]", "value": 34, "unit": "%"},
      {"measurement": "inhibition at 1 µM", "setting": "[12]", "value": 57, "unit": "%"},
      {"measurement": "inhibition at 1 µM", "setting": "[13]", "value": 15, "unit": "%"},
      {"measurement": "inhibition at 1 µM", "setting": "[14]", "value": 67, "unit": "%"},
      {"measurement": "inhibition at 1 µM", "setting": "[15]", "value": -5, "unit": "%"},
      {"measurement": "inhibition at 1 µM", "setting": "[16]", "value": 2, "unit": "%"},
      {"measurement": "inhibition at 1 µM", "setting": "[17]", "value": 66, "unit": "%"},
      {"measurement": "inhibition at 1 µM", "setting": "[18]", "value": 48, "unit": "%"},
      {"measurement": "inhibition at 1 µM", "setting": "[19]", "value": 62, "unit": "%"},
      {"measurement": "inhibition at 1 µM", "setting": "[20]", "value": 45, "unit": "%"},
      {"measurement": "inhibition at 1 µM", "setting": "[21]", "value": 57, "unit": "%"},
      {"measurement": "inhibition at 1 µM", "setting": "[22]", "value": 70, "unit": "%"},
      {"measurement": "inhibition at 1 µM", "setting": "[23]", "value": 10, "unit": "%"},
      {"measurement": "inhibition at 1 µM", "setting": "[24]", "value": 14, "unit": "%"},
      {"measurement": "inhibition at 1 µM", "setting": "[25]", "value": 64, "unit": "%"},
      {"measurement": "inhibition at 1 µM", "setting": "[26]", "value": 15, "unit": "%"},
      {"measurement": "inhibition at 1 µM", "setting": "[27]", "value": 9, "unit": "%"},
      {"measurement": "inhibition at 1 µM", "setting": "[28]", "value": -2, "unit": "%"},
      {"measurement": "inhibition at 1 µM", "setting": "[29]", "value": 0, "unit": "%"},
      {"measurement": "inhibition at 1 µM", "setting": "[30]", "value": 15, "unit": "%"},
      {"measurement": "inhibition at 1 µM", "setting": "[31]", "value": 13, "unit": "%"},
      {"measurement": "inhibition at 1 µM", "setting": "[32]", "value": 21, "unit": "%"},
      {"measurement": "inhibition at 1 µM", "setting": "[33]", "value": 9, "unit": "%"},
      {"measurement": "inhibition at 1 µM", "setting": "[34]", "value": 8, "unit": "%"},
      {"measurement": "inhibition at 1 µM", "setting": "[35]", "value": 9, "unit": "%"},
      {"measurement": "inhibition at 1 µM", "setting": "[36]", "value": 42, "unit": "%"},
      {"measurement": "inhibition at 1 µM", "setting": "[37]", "value": 44, "unit": "%"},
      {"measurement": "inhibition at 1 µM", "setting": "[38]", "value": 69, "unit": "%"},
      {"measurement": "inhibition at 1 µM", "setting": "[39]", "value": 1, "unit": "%"},
      {"measurement": "inhibition at 1 µM", "setting": "[40]", "value": 65, "unit": "%"}
    ]}
  ]
}
